Measured values from PubChem BioAssay (NCI).
Values joined by “and” are separate entries in the source; they are usually repeats but may differ in a detail not shown here. Equal entries are not always repeated.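 Where inhibition never reached the appropriate level, the endpoint shown equals the highest concentration tested. Otherwise, values were interpolated linearly from a five-concentration, 48-hour dose response in 96-well plates. Abbreviation: GI50, concentration required for 50% inhibition of growth. TGI: concentration producing complete growth inhibition.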

How the values were obtained:
Assay in all cases: NCI tumour cell line growth inhibition, 48 h
UACC-62 melanoma = system: UACC-62 melanoma
RPMI-8226 leukemia = system: RPMI-8226 leukemia
OVCAR-5 ovarian = system: OVCAR-5 ovarian
U251 CNS = system: U251 CNS
CCRF-CEM leukemia = system: CCRF-CEM leukemia
HOP-62 NSCLC = system: HOP-62 NSCLC
NCI-H23 lung = system: NCI-H23 lung
NCI/ADR-RES ovarian = system: NCI/ADR-RES ovarian
MDA-MB-231 breast = system: MDA-MB-231 breast
SR leukemia = system: SR leukemia

Row | Structure (SMILES) | TGI (UACC-62 melanoma) [µM] | TGI (RPMI-8226 leukemia) | TGI (OVCAR-5 ovarian) [µM] | TGI (U251 CNS) [µM] | TGI (CCRF-CEM leukemia) | TGI (HOP-62 NSCLC) [µM] | TGI (NCI-H23 lung) [µM] | TGI (NCI/ADR-RES ovarian) [µM] | TGI (MDA-MB-231 breast) [µM] | TGI (SR leukemia) [µM] | GI50 (UACC-62 melanoma) [µM] | GI50 (RPMI-8226 leukemia) | GI50 (OVCAR-5 ovarian) [µM] | GI50 (U251 CNS) [µM] | GI50 (CCRF-CEM leukemia) [µM] | GI50 (HOP-62 NSCLC) [µM] | GI50 (NCI-H23 lung) [µM] | GI50 (NCI/ADR-RES ovarian) [µM] | GI50 (MDA-MB-231 breast) [µM] | GI50 (SR leukemia) [µM]
1 | Nc1nc(Cl)cc(NCC2(O)CCCC2)n1 | > 100 | > 100 µM | > 100 | > 100 | > 100 µM | > 100 | > 100 | > 100 | > 100 | > 100 | – | – | – | – | – | – | – | – | – | –
2 | O=C1CC(n2cccc2)c2c(Br)sc(Br)c21 (stereo not drawn) | 30.3 | 27.4 µM | 32.5 | 28.4 | 26.8 µM | 53.4 | 27.9 | 69.6 | 30.9 | 12 | – | – | – | – | – | – | – | – | – | –
3 | Cc1cc2cc3c(cc2c(-c2ccc(N)cc2)n1)OCO3 | > 100 | 73.7 µM | > 100 | > 100 | > 100 µM | > 100 | > 100 | > 100 | > 100 | 52.5 | – | – | – | – | – | – | – | – | – | –
4 | CCOC(=O)C(=O)C(=O)NN(C)C1=NCCN1 | > 100 | > 100 µM | > 100 | > 100 | > 100 µM | > 100 | > 100 | > 100 | > 100 | > 100 | – | – | – | – | – | – | – | – | – | –
5 | CS(=O)(=O)NC12CCC(c3ccccc31)c1ccccc12 | > 100 | > 100 µM | > 100 | > 100 | > 100 µM | > 100 | > 100 | > 100 | > 100 | > 100 | – | – | – | – | – | – | – | – | – | –
6 | CCC(CC(C)C)Nc1ccc(NC(CC)CC(C)C)cc1 (stereo not drawn) | 24.3 | 18.5 µM | 29.1 | 26.6 | 27.8 µM | 33.3 | 46.3 | 39.8 | 33.2 | 39.7 | 10.6 | 3.85 µM | 15.6 | 13 | 6.6 | 18.6 | 18.2 | 17.6 | 16.4 | 15.1
7 | O=C(/C=C/c1cccs1)c1ccccc1Cl | 27.5 | 61.9 µM | 28.9 | 27.7 | 33.9 µM | 32.1 | 25.8 | 44.9 | > 54.4 | > 47.6 | – | – | – | – | – | – | – | – | – | –
8 | CC(C)(C)OC(=O)n1cc(C2CN(O)C(=O)C23CCC(=O)N3Cc2ccccc2)c2ccccc21 (stereo not drawn) | > 100 | 93.5 µM | > 100 | > 100 | > 100 µM | > 100 | > 100 | > 100 | > 100 | > 100 | – | – | – | – | – | – | – | – | – | –
9 | NCCOCC(N)C(=O)O (stereo not drawn) | > 100 | > 100 µM | > 100 | > 100 | > 100 µM | > 100 | > 100 | > 100 | > 100 | > 100 | – | 39.1 µM and > 100 µM | – | – | – | – | – | – | – | –
10 | NC1=NCC(CN2CCCC2)O1 (stereo not drawn) | > 100 | > 100 µM | > 100 | > 100 | > 100 µM | > 100 | > 100 | > 100 | > 100 | > 100 | – | – | – | – | – | – | – | – | – | –
11 | CCOP(=O)(OCC)C(C)(CC)NC(=O)C(C(F)(F)F)C(F)(F)F (stereo not drawn) | > 100 | > 81.6 µM and 59.7 µM | > 100 | > 100 | 48.7 µM and 53.1 µM | > 100 | > 100 | > 100 | > 100 | > 100 | > 100 | – | – | – | – | – | – | – | > 100 | –
12 | CC(C)C1(O)C(=O)N(c2c(F)c(F)c(F)c(F)c2F)C(=S)N1CCSc1ccccc1 (stereo not drawn) | 30.6 | 28.7 µM | 33 | 32.1 | 31.7 µM | 34.6 | 32.9 | 31 | 26.4 | 43 | – | – | – | – | – | – | – | – | – | –
13 | NC(=O)CO/N=C1/C(c2c(O)[nH]c3ccccc23)=Nc2ccccc21 | > 100 | > 100 µM | > 100 | > 100 | > 100 µM | > 100 | > 100 | > 100 | > 100 | > 56.9 | – | – | – | – | – | – | – | – | – | –
14 | O=c1cc(NCc2ccncc2)[nH]c(=O)[nH]1 | > 100 | > 100 µM | > 100 | > 100 | > 100 µM | > 100 | > 100 | > 100 | > 100 | > 100 | – | – | – | – | – | – | – | – | – | –
15 | CC1CC/C(=C\c2ccc(Cl)cc2)c2nc(N)c(C#N)c(-c3ccc(Cl)cc3)c21 (stereo not drawn) | > 100 | > 100 µM | > 100 | > 100 | > 100 µM | > 100 | > 100 | > 100 | > 100 | > 100 | – | – | – | – | – | – | – | – | – | –
16 | CCOC(=O)C1CCCCN1CCc1c[nH]c2ccccc12 (stereo not drawn) | > 100 | > 100 µM | > 100 | > 100 | > 100 µM | > 100 | > 100 | > 100 | > 100 | > 100 | – | – | – | – | – | – | – | – | – | –
17 | CCOC(=O)c1cn(C)c(=S)n2c1nc1ccccc12 | > 100 | 95.6 µM | > 100 | > 100 | > 100 µM | > 100 | > 100 | > 100 | > 100 | > 100 | – | – | – | – | – | – | – | – | – | –
18 | NS(=O)(=O)c1ccc(NNc2c3ccccc3nc3c(C(=O)Nc4ccc(S(=O)(=O)Nc5ncccn5)cc4)cccc23)cc1 | > 25 | > 25 µM | > 25 | > 25 | > 25 µM | > 25 | > 25 | > 25 | > 25 | > 25 | – | – | – | – | – | – | – | – | – | –
19 | COC(=O)c1c(C)nc(C)c(NO)c1-c1ccccc1C(F)(F)F | > 100 | 70.6 µM | > 100 | > 100 | > 100 µM | > 100 | 84.3 | 38.4 | 27.9 | > 100 | – | – | – | – | – | – | – | – | – | –
20 | c1ccc(-c2nnn(CCN3CCCCC3)n2)cc1 | > 100 | > 100 µM | > 100 | > 100 | > 100 µM | > 100 | > 100 | > 100 | > 100 | > 100 | – | – | – | – | – | – | – | – | – | –
21 | O=C(Nc1cccc(-n2cc(-c3ccncc3)c(-c3ccc(O)c(Cl)c3)n2)c1)c1cccc(C(F)(F)F)c1 | > 100 | 10.6 µM | > 100 | > 100 | > 100 µM | > 100 | > 100 | > 100 | 5.3 | 8.1 | 6.52 | 2.04 µM | 23.7 | 2.14 | 1.88 | 8.86 | 4.38 | 4.09 | 1.43 | 1.6
22 | Cc1cc2c(c(=O)n1C)SCC2 | > 100 | > 100 µM | > 100 | > 100 | > 100 µM | > 100 | > 100 | > 100 | > 100 | > 100 | – | – | – | – | – | – | – | – | – | –
23 | C(/Cc1ccc2c(c1)OCO2)=N\NC1=NCCCN1 | > 100 | > 100 µM | > 100 | > 100 | > 100 µM | > 100 | > 100 | > 100 | > 100 | 70.2 | – | – | – | – | – | – | – | – | – | –
24 | COc1ccc(-c2cc(C(O)C3CCCCN3)c3ccccc3n2)cc1 (stereo not drawn) | 12 | 5.82 µM | 24.8 | 14.5 | 9.08 µM | 24.3 | 31.6 | 39 | 9.83 | 1.46 | – | – | – | – | – | – | – | – | – | –
25 | Cc1ccc(-c2n[nH]c(=O)n2/N=C\c2ccccc2)cc1 | > 100 | > 100 µM | > 100 | > 100 | > 100 µM | 62.1 | > 100 | > 100 | > 100 | > 100 | – | – | – | – | – | – | – | – | – | –
26 | COC(=O)[C@@H]1CN(C(=O)c2ccccc2)C(=O)N1C(=O)OCc1ccccc1 | > 100 | > 100 µM | > 100 | > 100 | > 100 µM | > 100 | > 100 | > 100 | > 100 | > 100 | – | – | – | – | – | – | – | – | – | –
